123 compounds from the OPERA property sets (Mansouri et al. 2018) can be followed below.

Each structure is given as a SMILES string. Peptide text beside a SMILES is read from it. * marks the point of attachment. Cbz = O=C(OCc1ccccc1)*

For orientation: logP means a log measure of how a compound divides between an organic and an aqueous phase. Consider `O=S(=O)(NS(=O)(=O)c1ccccc1)c1ccccc1`, for which the log partition coefficient (logP) amounted to 0.52.

As for `CC(C)C(NC(=O)OCc1ccccc1)C(=O)NC(Cc1ccc(O)cc1)C(=O)O` (stereo not drawn) (Cbz-Val-Tyr-OH; configuration not given here), the logP amounted to 2.43.

On to `O=S(Cc1ccccn1)c1nc2ccccc2[nH]1` (stereo not drawn), for which the logP was determined as 1.33.

`CN(C)C(=S)Nc1ccccc1` yielded a logP of 1.04.

With `O=C(CCl)Nc1ccc(Cl)c(Cl)c1`, the log partition coefficient (logP) worked out at 3.29.

`Cc1c(NCC(C)C)c(=O)n(-c2ccccc2)c(=O)n1C`: the logP was determined as 1.48.

In turn, `Cc1nnc(SCc2ccccc2)o1` had a lipophilicity (logP) of 1.74.

Consider `COC1OC(CO)C(O)C(NC(=O)N(C)N=O)C1O` (stereo not drawn), for which the logP is -0.82.

With `NNc1ccc(Br)cc1`, the log partition coefficient (logP) is 1.39.

The compound `Cc1cccc(C)c1NC(=O)c1ccc(CN2CCCCC2)cc1` yielded a logP of 3.86.

The compound `COc1cc(C(=O)C=CN2CC=CC2)cc(OC)c1OC` returned a logP of 1.77.

Regarding `CC(C)(C)C(=O)Nc1ccc(Cl)c(Cl)c1`, the logP was determined as 3.88.

In turn, `Cc1c(N2CCOCC2)c(=O)n(-c2ccccc2)c(=O)n1C` returned a lipophilicity (logP) of 0.69.

`C[n+]1c2cc(N)ccc2cc2ccc(N)cc21.[Cl-]` gave a lipophilicity (logP) of -1.78.

On to `COc1cc(C=NO)ccc1OCCOC(=O)c1cccc(Cl)c1`, for which the logP is 3.94.

On to `S=C(Nc1ccccc1)c1ccccc1`, for which the logP came out at 3.03.

As for `O=[N+]([O-])c1ccc(OCCn2ccnn2)cc1`, the lipophilicity (logP) stood at 1.19.

Compound `COc1cc(C=NO)ccc1OCCOC(=O)COc1ccccc1` registered a lipophilicity (logP) of 2.1.

As to `CC(=O)N(C)c1ccc(S(=O)(=O)N(C)C)cc1`, the logP was 0.23.

In turn, `CC(=O)Nc1ccc(Oc2ccccc2)cc1` registered a log partition coefficient (logP) of 3.13.

In turn, `CCOC(=O)N=[N+]([O-])c1ccccc1` registered a lipophilicity (logP) of 2.53.

Consider `OCCOCCN1CCN(CCCN2c3ccccc3Sc3ccc(C(F)(F)F)cc32)CC1`, for which the logP was 4.49.

Regarding `CN(C)/N=N/c1ccccc1C(=O)NCC#N`, the log partition coefficient (logP) was 1.79.

Regarding `O=c1cc(-c2ccccc2)oc2cc(O)ccc12`, the logP is 3.62.

The compound `O=c1[nH]cc(I)c(=O)[nH]1` yielded a logP of 0.04.

Take `CC(=O)OC1CCCC(NC(=O)N(CCF)N=O)C1` (stereo not drawn): the logP amounted to 1.33.

In turn, `CSC(=O)Nc1ccccc1` yielded a logP of 2.4.

In turn, `CCCC1CC(C(=O)NC(C(C)Cl)C2OC(SC)C(O)C(O)C2O)N(CC)C1` (stereo not drawn) came in with a log partition coefficient (logP) of 2.51.

As for `O=S(=O)(NO)c1ccccc1`, the log partition coefficient (logP) came out at 0.48.

Turning to `CCOCCOC(=O)C(C#N)=C(NCc1ccc(Cl)cc1)C(C)C`, the logP was determined as 4.05.

In turn, `NC(=O)c1cccnc1N` came in with a lipophilicity (logP) of 0.88.

For `CC(=O)Nc1ccc2c(=O)c(C)c(C)oc2c1[N+](=O)[O-]`, the lipophilicity (logP) turned out to be 1.61.

In turn, `COc1cccc(Cc2cnc(N)nc2N)c1OC` had a log partition coefficient (logP) of 1.62. This logP and that of the compound before are within 0.2 log units of each other.

Compound `Cc1csc(N=C(N)N)n1` registered a logP of 1.24.

`CCOC(=O)CCC(=O)N(C)c1cccc(S(=O)(=O)N(C)C)c1` came in with a logP of 0.84.

`CCOCCOC(=O)C(C#N)=C(CC)NCc1ccc([N+](=O)[O-])cc1` displayed a lipophilicity (logP) of 2.64.

Regarding `CCC1OC(=O)C(C)C(OC2CC(C)(OC)C(O)C(C)O2)C(C)C(OC2OC(C)C(O)C(N(C)C)C2O)C(C)(O)CC(C)C(=O)C(C)C(O)C1(C)O` (stereo not drawn), the log partition coefficient (logP) worked out at 1.44.

`COc1ccc(C(C)=O)c(N)c1` yielded a logP of 1.76.

For the compound `CSC(=O)Nc1ccc(Cl)c(Cl)c1`, the logP was 4.23.

The compound `COc1ccc(-c2ncc[nH]2)c(OC)c1` showed a logP of 1.72.

`O=C(Nc1ccc(Cl)c(Cl)c1)C1CCCC1` came in with a logP of 4.47.

With `Cc1c(-c2ccccc2)oc2ccccc2c1=O`, the logP worked out at 3.92.

On to `CC(=O)n1ccnc1`, for which the log partition coefficient (logP) is -0.34.

`CN=C=S` had a logP of 0.94.

Turning to `O=C(O)Cc1n[nH]oc1=O`, the log partition coefficient (logP) is -1.66.

`CCCCCC(=O)N(C)c1ccc(S(=O)(=O)N(C)C)cc1` registered a logP of 2.16.

On to `C=CCn1c(=O)c(N(C)C)c(C)n(-c2ccccc2)c1=O`, for which the logP turned out to be 1.98.

With `COC1OC(CNC(=O)N(C)N=O)C(O)C(O)C1O` (stereo not drawn), the logP is -1.57.

`CC(=O)Nc1ccc2c(c1)S(=O)(=O)c1ccccc1C2=O`: the log partition coefficient (logP) came to 2.35.

With `CCOc1cc(Cc2cnc(N)nc2N)cc(OCC)c1`, the log partition coefficient (logP) was found to be 2.52.

With `COc1cccc(CC(C)N)c1OC` (stereo not drawn), the logP turned out to be 1.49.

As to `CC(C)CC(CC(C)C)OC(=O)c1ccc(NC(=O)N(C)C)cc1Cl`, the logP was 5.15.

The compound `CC(C)OC(=O)c1ccccc1` had a log partition coefficient (logP) of 3.18.

In the case of `CCOC(=O)CNCCCCCSc1c2[nH]cnc2nc[n+]1[O-]`, the logP is 0.87.

`O=C(Nc1ccccc1)c1ccc(C(=O)Nc2ccccc2)cc1`: the logP was 3.72.

`CCCCC(=O)N(C)c1ccc(S(=O)(=O)N(C)C)cc1`: the lipophilicity (logP) turned out to be 1.63.

Compound `CCOC(=O)CC(=O)C=Cc1cccc(C)c1` showed a logP of 2.8.

Take `O=[N+]([O-])c1ccc(/C=C/c2cccc(CO)n2)o1`: the lipophilicity (logP) was found to be 1.37.

As to `c1ccc(CSc2cnn[nH]2)cc1`, the logP was 2.65.

Compound `O=CC(CO)OC(C=O)n1cnc2c(O)ncnc21` (stereo not drawn) had a logP of -2.11.

Turning to `CNC(=S)Nc1ccccc1`, the log partition coefficient (logP) turned out to be 0.85.

`Cc1[nH]c(=O)[nH]c(=O)c1N(CCF)CCCl` registered a lipophilicity (logP) of 0.85.

In the case of `COc1cc(C=NO)ccc1OCCOC(=O)c1ccc(Cl)cc1`, the logP worked out at 3.92.

Regarding `Cn1c(C=O)cnc1[N+](=O)[O-]`, the log partition coefficient (logP) is -0.1.

Regarding `O=C(CN(C(=O)C(Cl)Cl)c1ccccc1)Nc1ccccc1`, the lipophilicity (logP) worked out at 2.96.

For the compound `Cn1nnnc1SCc1ccccc1`, the logP was found to be 1.63.

Regarding `COC(=O)c1cccc(NC(C)=O)c1`, the logP was 1.46. This logP and that of the compound before are within 0.2 log units of each other.

`COc1cc(C=NO)ccc1OCCOC(=O)c1ccccc1OC` came in with a log partition coefficient (logP) of 2.84.

Regarding `COc1ccc(-c2nc3ccncc3[nH]2)c(OC)c1`, the log partition coefficient (logP) came out at 2.56.

In the case of `O=C1CC(C(=O)O)Oc2ccccc21` (stereo not drawn), the lipophilicity (logP) was determined as 1.26.

`CCC(C)N=C=S` (stereo not drawn) displayed a logP of 2.81.

In the case of `CS(=O)(=O)F`, the logP was 0.55.

In turn, `Cc1c(N(C)C)c(=O)[nH]c(=O)n1-c1ccccc1` showed a logP of 1.4.

`O=C(O)c1ccco1` showed a lipophilicity (logP) of 0.64.

Compound `Cc1oc2cc(OCC#N)ccc2c(=O)c1C` returned a lipophilicity (logP) of 1.96.

In turn, `CSc1ccc(C=NN=C(N)NN)cc1` yielded a logP of 1.35.

`O=C(CCc1ccccc1)Nc1ccc(Cl)c(Cl)c1` returned a log partition coefficient (logP) of 4.85.

In turn, `CC(=O)NNC(=O)c1ccccc1N(C)C` displayed a logP of 1.49.

Take `NCC(=O)NCC(=O)NCC(=O)O`: the logP was -2.68.

`CCOC(=O)CC(=O)C=Cc1ccccc1C` registered a logP of 2.66.

Turning to `CCOC(=O)c1ccc(NC(=O)C(F)(F)F)cc1`, the log partition coefficient (logP) was determined as 2.25.

With `CCCCOC(=O)c1cccc(C(=O)OCCCC)c1`, the logP worked out at 4.26.

In turn, `Cc1nccnn1` yielded a logP of -1.31.

Compound `CCOC(=O)CON=Cc1ccc(OCCOC(=O)c2ccccc2OC)c(OC)c1` yielded a logP of 3.27.

In turn, `CCC(=O)OCCOc1ccc(C=O)cc1OC` returned a logP of 1.33.

For the compound `CCOC(=O)CON=Cc1ccc(OCCOC(=O)c2cc(OC)c(OC)c(OC)c2)c(OC)c1`, the lipophilicity (logP) was 3.26.

`Cc1cccc(C)c1NC(=O)c1cccc(CN2CCCC2)c1` returned a logP of 3.1.

Turning to `c1ccc(CSc2nnc[nH]2)cc1`, the logP stood at 1.45.

`COc1cc(C=O)ccc1OCCOC(=O)c1ccc(Cl)cc1` returned a lipophilicity (logP) of 3.71.

Regarding `c1ccn2nnnc2c1`, the lipophilicity (logP) is -0.09.

Regarding `NC1=NS(=O)(=O)c2ccc(Cl)cc2N1`, the logP was 0.91.

In the case of `CN(CCO)C1=C(N2CC2)C(=O)C(N(C)CCO)=C(N2CC2)C1=O`, the logP is -0.37.

Turning to `COCC(=O)Nc1ccc(Cl)c(Cl)c1`, the logP was found to be 2.77.

`C[N+](C)(C)Cc1cccc(C(F)(F)F)c1.[Br-]` registered a logP of -1.35.

For the compound `CC(C)(NC(=O)N(CCCl)N=O)C(=O)O`, the lipophilicity (logP) worked out at 1.74.

As for `CC(C)=NO`, the log partition coefficient (logP) came out at 0.12.

The compound `CC(C)S(=O)(=O)n1c(N)nc2ccc(/C(=N/O)c3ccccc3)cc21` displayed a logP of 3.1.

`CCCC(=O)Nc1ccc(Cl)c(Cl)c1` gave a logP of 3.77.

As for `COC(=O)c1ccccc1NC(C)=O`, the log partition coefficient (logP) amounted to 1.65.

In turn, `COc1cc(C=O)ccc1OCCOC(=O)c1cccc(Cl)c1` yielded a logP of 3.67.

`CN(C(=O)CCSC#N)c1ccc(S(=O)(=O)N(C)C)cc1`: the logP is 0.84.

`CCNCC(F)(F)F` gave a log partition coefficient (logP) of 0.74.

The compound `O=C(O)c1ccccc1-c1ccccc1C(=O)O` gave a logP of 2.07.

With `CC(=O)OCCC(=O)N(C)c1ccc(S(=O)(=O)N(C)C)cc1`, the logP came out at 0.26.

On to `CS(=O)(=O)OCCCNCCCOS(C)(=O)=O`, for which the logP was -1.71.

`O=C([O-])c1cc2ccccc2cc1O.[Na+]` had a logP of 0.17.

On to `CCOC(=O)CC(=O)C=Cc1ccc(C)cc1`, for which the lipophilicity (logP) turned out to be 2.63.

As to `CNc1cccc2ccccc12`, the lipophilicity (logP) came to 2.88.

In turn, `CC1(C)N=C(N)N=C(N)N1c1ccc(OCC(=O)N2CCOCC2)cc1` yielded a lipophilicity (logP) of -1.18.

`S=C=Nc1cccc(Br)c1` came in with a logP of 4.12.

Consider `O=[N+]([O-])c1ccc(C(F)(F)F)cc1`, for which the logP amounted to 2.55.

Take `CCC1(C)CCC(=O)NC1=O` (stereo not drawn): the logP worked out at 0.23.

Consider `COc1cc(C=NO)ccc1OCCOC(=O)c1ccccc1`, for which the logP was determined as 2.94.

Compound `O=C(CN(C(=O)CCl)c1ccccc1)Nc1ccccc1` registered a lipophilicity (logP) of 2.32.

`CC(=O)NC1=CC(=O)N(c2ccc(Cl)cc2)C1=O` registered a lipophilicity (logP) of 0.75.

For `CCCCNc1c(C)n(C)c(=O)n(-c2ccccc2)c1=O`, the logP is 1.69.

`CCC(C)NC(=O)C(=Cc1ccccc1)Sc1ccccc1` (stereo not drawn) returned a lipophilicity (logP) of 4.36.

Take `c1ccc(Cc2nn[nH]n2)cc1`: the logP amounted to 1.36.

`N#CCC(=O)Nc1ccc(Cl)c(Cl)c1` yielded a logP of 2.72.

Take `CCC(CC)C1=Nc2ccccc2S(=O)(=O)N1`: the logP is 1.88.

Take `NC(=O)c1nc[nH]c1N=NN(CCO)Cc1ccccc1`: the log partition coefficient (logP) worked out at 0.99.

Regarding `CSc1ccccc1NC(C)=O`, the lipophilicity (logP) turned out to be 1.53.

With `NCC(=O)NCC(=O)NCC(=O)NCC(=O)NCC(=O)O`, the logP was -3.31.
